Experiment [1] can be described thus: Luminescence Cell-Based Dose Confirmation HTS to Identify Activators of 5'UTR Stem-Loop Driven Alpha-Synuclein mRNA Translation in H4 Neuroglioblastoma Cells. [Related pubchem assays: 1829 (Project Summary), 1814 (Primary HTS)]. Type of experiment: functional.
Experiment [2] is described as follows: Luminescence Cell-Based Dose Response HTS to Identify Activators of Luciferase Translation or Activity in H4 […] Cells. [Related pubchem assays: 1829 (Project Summary), 1814 (Primary HTS)]. Type of experiment: functional.
Experiment [3] relates to H4. The experiment can be described thus: Luminescence Cell-Based Dose Response HTS to Identify Activators of 5'UTR Stem-Loop Driven Prion Protein mRNA Translation in H4 Neuroglioblastoma Cells. [Related pubchem assays: 1829 (Project Summary), 1814 (Primary HTS)]. Type of experiment: functional. To be noted: Homo sapiens.
The nature of experiment [4]: viability of uninfected HEp-2 cells – cell-based, HTS, cytotoxicity control for RSV inhibitor project, dose response (AID 2410). Format: functional. To be noted: human respiratory syncytial virus.
The target in experiment [5] is T1, Replicative DNA helicase DnaB (Mycobacterium tuberculosis, UniProt P9WMR3).
T1 sequence (P9WMR3 whole entry): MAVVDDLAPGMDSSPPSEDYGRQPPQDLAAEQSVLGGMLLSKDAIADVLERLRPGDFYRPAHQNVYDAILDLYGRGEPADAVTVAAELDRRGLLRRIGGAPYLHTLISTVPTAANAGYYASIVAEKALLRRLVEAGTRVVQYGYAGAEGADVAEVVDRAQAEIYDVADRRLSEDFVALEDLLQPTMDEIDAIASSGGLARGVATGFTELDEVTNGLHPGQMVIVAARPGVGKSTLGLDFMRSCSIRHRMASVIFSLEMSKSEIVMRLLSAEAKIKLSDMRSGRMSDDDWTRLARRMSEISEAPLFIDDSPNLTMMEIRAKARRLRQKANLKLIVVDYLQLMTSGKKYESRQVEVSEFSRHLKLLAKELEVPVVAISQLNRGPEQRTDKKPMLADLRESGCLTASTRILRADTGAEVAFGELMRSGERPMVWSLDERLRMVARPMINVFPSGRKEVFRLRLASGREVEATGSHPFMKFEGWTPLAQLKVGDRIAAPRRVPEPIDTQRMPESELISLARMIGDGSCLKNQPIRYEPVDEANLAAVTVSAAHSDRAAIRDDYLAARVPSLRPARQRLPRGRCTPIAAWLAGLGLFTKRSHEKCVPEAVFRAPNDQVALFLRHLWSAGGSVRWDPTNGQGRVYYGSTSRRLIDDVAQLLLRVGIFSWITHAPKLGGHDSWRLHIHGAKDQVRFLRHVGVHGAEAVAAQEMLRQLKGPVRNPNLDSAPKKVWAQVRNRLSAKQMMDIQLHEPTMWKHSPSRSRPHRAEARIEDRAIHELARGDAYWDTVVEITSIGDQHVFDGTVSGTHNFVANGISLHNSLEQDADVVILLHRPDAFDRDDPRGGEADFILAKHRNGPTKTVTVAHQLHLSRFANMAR
The experiment can be described thus: DnaB intein splicing inhibitors, dose response, biochemical, cell-free fluorescence (AID 449749). Format: functional.

Experiment [6] concerns the target T2, Protein RecA (Mycobacterium tuberculosis, UniProt P9WHJ3).
T2 sequence (P9WHJ3 whole entry): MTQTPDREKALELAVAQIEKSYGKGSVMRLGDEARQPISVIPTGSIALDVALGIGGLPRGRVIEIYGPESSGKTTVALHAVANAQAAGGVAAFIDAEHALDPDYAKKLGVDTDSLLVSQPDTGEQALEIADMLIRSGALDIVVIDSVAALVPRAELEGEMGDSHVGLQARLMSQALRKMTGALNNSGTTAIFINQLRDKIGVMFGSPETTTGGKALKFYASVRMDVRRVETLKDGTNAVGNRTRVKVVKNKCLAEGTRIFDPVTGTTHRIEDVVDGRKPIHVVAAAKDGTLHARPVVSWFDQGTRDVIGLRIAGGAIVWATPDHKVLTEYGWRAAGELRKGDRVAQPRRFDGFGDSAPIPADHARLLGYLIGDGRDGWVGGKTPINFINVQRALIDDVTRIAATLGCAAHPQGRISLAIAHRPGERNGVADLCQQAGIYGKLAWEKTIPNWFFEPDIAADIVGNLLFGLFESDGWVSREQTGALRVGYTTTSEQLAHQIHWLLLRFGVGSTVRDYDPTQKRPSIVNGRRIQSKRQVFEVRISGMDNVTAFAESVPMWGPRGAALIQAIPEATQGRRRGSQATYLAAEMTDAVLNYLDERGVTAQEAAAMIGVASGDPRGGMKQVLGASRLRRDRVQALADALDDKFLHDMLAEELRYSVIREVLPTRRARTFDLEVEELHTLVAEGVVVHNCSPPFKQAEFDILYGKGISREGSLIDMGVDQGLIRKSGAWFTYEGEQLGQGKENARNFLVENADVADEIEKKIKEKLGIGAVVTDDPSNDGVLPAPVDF
Description: Fluorescence Cell-Free Homogeneous Dose Retest to Identify Inhibitors of RecA-Intein Splicing Activity. [Related pubchem assays (depositor defined):AID2097, AID2223, AID489010, AID492950]. Format: functional.

A short description of experiment [7]: Trypanosoma cruzi growth suppression in host cells – NIH3T3 host cells, beta-gal luminescence, confirmation (AID 2044).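 Also: intracellular parasites grown in NIH/3T3 mouse fibroblasts as host cells; luminescent beta-galactosidase reporter signal from transgenic T. cruzi replicating inside host cells; inhibitors lower the luminescence signal.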 Format: functional, cell-based.
A short description of experiment [8]: NIH3T3 cell viability loss – ATP luminescence, mouse fibroblasts, counter-screen, dose response (AID 2010).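 Also: cells exposed to compound for about 90 hours before reading.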 Format: functional, cell-based.

Calls of active or inactive are those of the source. Rule as the data show it, for most assays here: actives have a measured EC50 and inactives only a lower limit.

On to `Nc1nn(-c2ccccc2)nc1C(=O)OCc1ccccc1`, for which the EC50 in experiment [1] was > 120 µM (not active); in experiment [2], 13.7 µM (active); in experiment [3] it was 25.2 µM (active).

As for `CC(C)c1ccc(NC(S)=NN2CCOCC2)cc1`, the figures for the EC50 in experiment [1], in experiment [2] and in experiment [3] were 18.4 µM (active), 17.4 µM (active) and 22.2 µM (active), respectively.

On to `Cc1cc(-n2c(C)cc(C(=O)COC(=O)CNC3=NS(=O)(=O)c4ccccc43)c2C)no1`, for which the CC50 in experiment [4] is 25.8 µM (active).

For `COc1ccc(CN(C(=O)CSc2nnc(-c3ccccc3C)o2)c2ccc(F)cc2)cc1`, the CC50 in experiment [4] was 29.4 µM (active). Further, in experiment [5], the AC50 was 1.42 µM (active). In addition, the EC50 in experiment [6] is 8.86 µM (active).

Take `O=[N+]([O-])c1ccc2nc(SCc3ccccc3Cl)sc2c1`: the CC50 in experiment [4] was 29 µM (active).

With `COc1ccccc1N=C(S)NNC(=O)c1ccc(Cl)cc1Cl`, the EC50 was 10.9 µM (active) in experiment [1], 31.8 µM (active) in experiment [2] and 61.7 µM (active) in experiment [3].

Regarding `O=C(NCc1nc2ccccc2[nH]1)C1=C[C@@H](c2csc3ccccc23)C[C@@H](OCc2ccc(CO)cc2)O1`, the CC50 in experiment [4] is 39 µM (active).

Take `O=C(COC(=O)c1ccccc1C(=O)c1ccccc1)Nc1ccc(SC(F)F)cc1`: the half-maximal cytotoxic concentration (CC50) in experiment [4] is 16.4 µM (active).

For the compound `COc1ccc(S(=O)(=O)n2ccc(-c3ccc4c(c3)CCC(C)(C)O4)n2)cc1`, the half-maximal effective concentration (EC50) in experiment [1] is > 120 µM (not active); in experiment [2], 17.2 µM (active); in experiment [3], 43.4 µM (active).

Take `COn1c2c(c3c4no[n+]([O-])c4ccc31)CCCC2`: the CC50 in experiment [4] was 16.5 µM (active).

In the case of `c1ccc2c(-c3nc(-c4ccncc4)no3)cccc2c1`, the results for the EC50 in experiment [1], in experiment [2] and in experiment [3] were 0.841 µM (active), > 120 µM (not active) and 51.4 µM (active), respectively.

On to `Oc1nc(CCl)nc2cc(-c3ccc(Cl)cc3)sc12`, for which the CC50 in experiment [4] is 14.5 µM (active). Moreover, the EC50 is 1.14 µM (active) in experiment [7] and 6.96 µM (active) in experiment [8].

Regarding `Cc1c(OCC(=O)NCc2cccnc2)ccc2c3c(c(=O)oc12)CCC3`, the EC50 was > 120 µM (not active) in experiment [1], > 120 µM (not active) in experiment [2] and 15.4 µM (active) in experiment [3].

With `Cn1cc(/C=C2\SC(=O)N(c3ccc(O)cc3)C2=O)c2ccccc21`, the CC50 in experiment [4] is 16 µM (active).

As for `CC(C)(C)c1ccc(OCc2ccc(C(=O)N/N=C/c3ccc([N+](=O)[O-])cc3)o2)cc1`, the half-maximal cytotoxic concentration (CC50) in experiment [4] was 23.3 µM (active).

As to `Cc1ccccc1OCc1nc(-c2ccc(NC(=O)c3cccs3)cc2)no1`, the EC50 in experiment [1] was 23.8 µM (active); in experiment [2], 28.5 µM (active); in experiment [3], 1.46 µM (active).

With `CCC1(c2ccccc2)NC(=O)N(CC(=O)Nc2cc(S(=O)(=O)N3CCCCCC3)ccc2OC)C1=O` (stereo not given), the CC50 in experiment [4] is 29.9 µM (active).

In the case of `Cc1nc(C(=O)Nc2ccccc2)sc1C1(C)CC(c2cccnc2)=NO1` (stereo not given), the EC50 in experiment [1] is 10.1 µM (active); in experiment [2], 30.4 µM (active); in experiment [3], 11.9 µM (active).

Regarding `CCn1cnc2cc(NCc3ccccc3Cl)ccc21`, the CC50 in experiment [4] was 25 µM (active).

Consider `CCOC(=O)c1c(C)[nH]c(/C=N/c2ccc(OC)cc2)c1O`, for which the EC50 is 16.5 µM (active) in experiment [1], 46.9 µM (active) in experiment [2] and 4.53 µM (active) in experiment [3].

Take `O=S(=O)(c1cccc(-c2csc(-c3cccnc3)n2)c1)N1CCCCC1`: the CC50 in experiment [4] is 28.9 µM (active).

Take `Cn1cc(/C=C(\NC(=O)c2ccccc2Cl)C(=O)NCCN2CCOCC2)c2ccccc21`: the EC50 in experiment [1], in experiment [2] and in experiment [3] was > 120 µM (not active) throughout.

On to `Cc1ccc(-c2nn3c(C)nnc3s2)cc1N`, for which the CC50 in experiment [4] is 22.1 µM (active).

For `C(=N\C(/N=C/c1ccco1)c1ccco1)/c1ccco1`, the figures for the EC50 in experiment [1], in experiment [2] and in experiment [3] were 28.9 µM (active), > 120 µM (not active) and > 120 µM (not active), respectively.

Take `CC(C)(C)c1ccc(OCc2ccc(C(=O)NCc3cccnc3)o2)cc1`: the values for the EC50 in experiment [1], in experiment [2] and in experiment [3] were 6.24 µM (active), 5.94 µM (active) and > 120 µM (not active), respectively.

Take `Cc1c(C(=O)NNC(=O)Nc2ccc([N+](=O)[O-])cc2)oc2ccccc12`: the CC50 in experiment [4] was > 50 µM (active).

On to `Cc1ccc2c(c1)c1c3n2CCN(C(=O)Cn2c(-c4ccccc4)noc2=O)C3CCC1` (stereo not given), for which the CC50 in experiment [4] was 38.8 µM (active).

As for `C=CCn1cccc(C(=O)Nc2ccc(SC)cc2)c1=O`, the EC50 in experiment [1] is 0.229 µM (active); in experiment [2] it was 0.188 µM (active); in experiment [3], 9.44 µM (active).

For `Cc1cccc(OCC2=NS(=O)(=O)c3ccccc3N2)c1`, the EC50 was > 120 µM (not active) in experiment [1], 9.74 µM (active) in experiment [2] and > 120 µM (not active) in experiment [3].

Take `Cc1ccc(Nc2nc(N)c([N+](=O)[O-])c(NCc3ccco3)n2)cc1`: the CC50 in experiment [4] was > 50 µM (active).

Consider `Cc1cc(CNC(=O)c2ccc3nc(Cc4ccccc4F)oc3c2)nn1C`, for which the half-maximal effective concentration (EC50) in experiment [1] is 0.3 µM (active); in experiment [2], 58.7 µM (active); in experiment [3], 7.51 µM (active).

The values above are taken from ChEMBL document CHEMBL1201862, “PubChem BioAssay data set” (2004).
